Patent US12678446B2 (PFIZER INC., priority 2020, dated 2026)

Key:
[1] = test system: RSV (RSV A2 ECACC, 0709161v); test: RSV plaque reduction assay; format: cell-based, respiratory syncytial virus; settings: human respiratory syncytial virus, HepG2, read-out: RSV A2 Plaque EC50, RSV A2 in Hep-G2 cells; mean of at least two experiments unless noted (n = 1)
Protocol: Compounds w ere subjected to RSV plaque reduction assays according to the following protocol.
Hep-G2 cells (ECACC, 85011430) were passaged in flasks and seeded in 24-well plates in DMEM containing antibiotics and supplemented with 10% FBS. During inoculation and subsequent incubation, cells were cultured in DMEM containing 2% FBS. 100 plaque forming unit/well of RSV (RSV A2 ECACC, 0709161v) was mixed with eight serial dilutions of compound. Subsequently, 100 μL of the virus/compound mixtures was added to confluent Hep-G2 cell monolayers. The cells and virus/compound mixtures were incubated at 37° C. in a humidified 5% CO2 incubator for 2 h prior to removal of the inoculum and addition of 1 mL of overlay (DMEM containing 2% FBS and 0.8% CMC) containing compound dilutions. The cells and were incubated at 37° C. in a humidified 5% CO2 incubator for 2 days.
Cells were washed with PBS before adding 75/25% v/v EtOH MeOH, for 3 min. Fixative was removed and plates were washed with PBS. A pre-titrated amount of the primary antibody was added in 200 μL PBS/2% milk powder, and plates incubated for 90 min at 37° C. The plates were washed 3 times with PBS/0.05% Tween20 before addition of rabbit anti-goat horse radish peroxidase in 200 μL PBS/2% milk powder, and incubated for 1 h at 37° C. Following three wash steps with PBS/0.05% Tween20, 200 μL ready-to-use TrueBlue was added and plates were incubated at rt for 10-15 min before washing with water. After removal of water, plates were air-dried in the dark.
Plates were scanned and analysed using the Immunospot S6 Macro analyser, which is equipped with BioSpot analysis software for counting immunostained plaques (virospots). Plaque counts were used to calculate % infection relative to the mean of the plaque count in the virus control wells for RSV. […] Unless otherwise noted, plaque EC50 and cell toxicity CC50 values are a mean of at least two experiments and figures are rounded to whole units.

[2] = cell toxicity CC50; format: cell-based; settings: human; Hep-G2 cells; mean of at least two experiments; read-out: Cell Cytotoxicity CC50

SMILES	EC50 [1] [nM]	CC50 [2] [nM]
CC(C)Nc1ccc(-c2nn3c(c2C(=O)N[C@H]2N=C(c4ccccc4)c4cccc(F)c4NC2=O)O[C@H](C)CC3)c(F)n1 [Example 30, (5R)-N-[(3S)-9-fluoro-2-oxo-5-phenyl-1,3-dihydro-1,4-benzodiazepin-3-yl]-2-[2-fluoro-6-(propan-2-ylamino)pyridin-3-yl]-5-methyl-6,7-dihydro-5H-pyrazolo[5,1-b][1,3]oxazine-3-carboxamide]	16	> 25000
CC(C)Nc1ccc(-c2nn3c(c2C(=O)N[C@H]2N=C(c4ccccc4)c4cccc(F)c4NC2=O)O[C@@H](C)CC3)c(F)n1 [Example 31, (5S)-N-[(3S)-9-fluoro-2-oxo-5-phenyl-1,3-dihydro-1,4-benzodiazepin-3-yl]-2-[2-fluoro-6-(propan-2-ylamino)pyridin-3-yl]-5-methyl-6,7-dihydro-5H-pyrazolo[5,1-b][1,3]oxazine-3-carboxamide]	11	> 25000
O=C(N[C@H]1N=C(c2ccccc2)c2cccc(F)c2NC1=O)c1c(-c2ccc(F)cc2F)nn2c1S(=O)(=O)CCC2 [Example 32, 2-(2,4-Difluorophenyl)-N-[(3S)-9-fluoro-2-oxo-5-phenyl-2,3-dihydro-1H-1,4-benzodiazepin-3-yl]-4,4-dioxo-5H,6H,7H-4λ^6-pyrazolo[3,2-b][1,3]thiazine-3-carboxamide]	411	> 25000
O=C(N[C@H]1N=C(c2ccccc2)c2cccc(F)c2NC1=O)c1c(-c2ccccc2F)nn2c1S(=O)(=O)CCC2 [Example 33, 2-(2-Fluorophenyl)-N-[(3S)-9-fluoro-2-oxo-5-phenyl-2,3-dihydro-1H-1,4-benzodiazepin-3-yl]-4,4-dioxo-5H,6H,7H-4λ^6-pyrazolo[3,2-b][1,3]thiazine-3-carboxamide]	474	> 25000
O=C(N[C@H]1N=C(c2ccccc2)c2cccc(F)c2NC1=O)c1c(-c2ccc(F)cc2F)nn2c1SCCC2 [Example 34, 2-(2,4-Difluorophenyl)-N-[(3S)-9-fluoro-2-oxo-5-phenyl-2,3-dihydro-1H-1,4-benzodiazepin-3-yl]-5H,6H,7H-pyrazolo[3,2-b][1,3]thiazine-3-carboxamide]	143	> 25000
O=C(N[C@H]1N=C(c2ccccc2)c2cccc(F)c2NC1=O)c1c(-c2ccccc2F)nn2c1SCCC2 [Example 35, N-[(3S)-9-Fluoro-2-oxo-5-phenyl-2,3-dihydro-1H-1,4-benzodiazepin-3-yl]-2-(2-fluorophenyl)-5H,6H,7H-pyrazolo[3,2-b][1,3]thiazine-3-carboxamide]	117	> 25000
O=C(N[C@H]1N=C(c2ccccc2)c2ccccc2NC1=O)c1nn2c(c1-c1ccccc1F)OCCC2 [Example 36, 3-(2-Fluorophenyl)-N-[(3S)-2-oxo-5-phenyl-1,3-dihydro-1,4-benzodiazepin-3-yl]-6,7-dihydro-5H-pyrazolo[5,1-b][1,3]oxazine-2-carboxamide]	444	> 25000
O=C(N[C@H]1N=C(c2ccccc2)c2ccccc2NC1=O)c1nn2c(c1-c1ccccc1F)OCC2 [Example 37, 7-(2-Fluorophenyl)-N-[(3S)-2-oxo-5-phenyl-1,3-dihydro-1,4-benzodiazepin-3-yl]-2,3-dihydropyrazolo[5,1-b][1,3]oxazole-6-carboxamide]	333	> 25000
O=C(N[C@H]1N=C(c2ccccc2)c2ccccc2NC1=O)c1nn2c(c1-c1ccc(NC3CC3)nc1F)OCCC2 [Example 38, 3-[6-(Cyclopropylamino)-2-fluoropyridin-3-yl]-N-[(3S)-2-oxo-5-phenyl-1,3-dihydro-1,4-benzodiazepin-3-yl]-6,7-dihydro-5H-pyrazolo[5,1-b][1,3]oxazine-2-carboxamide]	189	> 25000
O=C(N[C@H]1N=C(c2ccccc2)c2cccc(F)c2NC1=O)c1c(-c2ccc(NC3CC3)nc2F)nn2c1OCCC2 [Example 39, 2-[6-(Cyclopropylamino)-2-fluoropyridin-3-yl]-N-[(3S)-9-fluoro-2-oxo-5-phenyl-1,3-dihydro-1,4-benzodiazepin-3-yl]-6,7-dihydro-5H-pyrazolo[5,1-b][1,3]oxazine-3-carboxamide]	40	> 25000
CC1(C)COc2c(C(=O)N[C@H]3N=C(c4ccccc4)c4ccccc4NC3=O)c(-c3ccccc3F)nn2C1 [Example 40, 2-(2-Fluorophenyl)-6,6-dimethyl-N-[(3S)-2-oxo-5-phenyl-1,3-dihydro-1,4-benzodiazepin-3-yl]-5,7-dihydropyrazolo[5,1-b][1,3]oxazine-3-carboxamide]	57	> 25000
CC1(C)COc2c(C(=O)N[C@H]3N=C(c4ccccc4)c4cccc(F)c4NC3=O)c(-c3ccccc3F)nn2C1 [Example 41, N-[(3S)-9-fluoro-2-oxo-5-phenyl-1,3-dihydro-1,4-benzodiazepin-3-yl]-2-(2-fluorophenyl)-6,6-dimethyl-5,7-dihydropyrazolo[5,1-b][1,3]oxazine-3-carboxamide]	29	> 25000
Cc1cnc(F)c(-c2nn3c(c2C(=O)N[C@H]2N=C(c4ccccc4)c4ccccc4NC2=O)OCCC3)c1 [Example 42, 2-(2-Fluoro-5-methylpyridin-3-yl)-N-[(3S)-2-oxo-5-phenyl-1,3-dihydro-1,4-benzodiazepin-3-yl]-6,7-dihydro-5H-pyrazolo[5,1-b][1,3]oxazine-3-carboxamide]	124	> 25000
Cc1cnc(F)c(-c2nn3c(c2C(=O)N[C@H]2N=C(c4ccccc4)c4cccc(F)c4NC2=O)OCCC3)c1 [Example 43, 2-(2-Fluoro-5-methylpyridin-3-yl)-N-[(3S)-9-fluoro-2-oxo-5-phenyl-1,3-dihydro-1,4-benzodiazepin-3-yl]-6,7-dihydro-5H-pyrazolo[5,1-b][1,3]oxazine-3-carboxamide]	101	> 25000
O=C(N[C@H]1N=C(c2ccccc2)c2ccccc2NC1=O)c1c(-c2ccc(NC3CC3)nc2F)nn2c1OCCC2 [Example 44, 2-[6-(Cyclopropylamino)-2-fluoropyridin-3-yl]-N-[(3S)-2-oxo-5-phenyl-1,3-dihydro-1,4-benzodiazepin-3-yl]-6,7-dihydro-5H-pyrazolo[5,1-b][1,3]oxazine-3-carboxamide]	55	> 25000
O=C(N[C@H]1N=C(c2ccccc2)c2cccc(F)c2NC1=O)c1c(C2CC2)nn2c1OCCC2 [Example 45, 2-Cyclopropyl-N-[(3S)-9-fluoro-2-oxo-5-phenyl-1,3-dihydro-1,4-benzodiazepin-3-yl]-6,7-dihydro-5H-pyrazolo[5,1-b][1,3]oxazine-3-carboxamide]	301	> 25000
C[C@@H]1CCn2nc(-c3cncc(Cl)c3)c(C(=O)N[C@H]3N=C(c4ccccc4)c4ccccc4NC3=O)c2O1 [Example 46, (5R)-2-(5-Chloropyridin-3-yl)-5-methyl-N-[(3S)-2-oxo-5-phenyl-1,3-dihydro-1,4-benzodiazepin-3-yl]-6,7-dihydro-5H-pyrazolo[5,1-b][1,3]oxazine-3-carboxamide]	119	> 25000
C[C@@H]1CCn2nc(-c3cncc(Cl)c3)c(C(=O)N[C@H]3N=C(c4ccccc4)c4cccc(F)c4NC3=O)c2O1 [Example 47, (5R)-2-(5-Chloropyridin-3-yl)-5-methyl-N-[(3S)-9-fluoro-2-oxo-5-phenyl-1,3-dihydro-1,4-benzodiazepin-3-yl]-6,7-dihydro-5H-pyrazolo[5,1-b][1,3]oxazine-3-carboxamide]	84	> 25000
COc1cc(-c2nn3c(c2C(=O)N[C@H]2N=C(c4ccccc4)c4cccc(F)c4NC2=O)O[C@H](C)CC3)ccn1 [Example 48, (5R)-2-(2-Methoxypyridin-4-yl)-5-methyl-N-[(3S)-9-fluoro-2-oxo-5-phenyl-1,3-dihydro-1,4-benzodiazepin-3-yl]-6,7-dihydro-5H-pyrazolo[5,1-b][1,3]oxazine-3-carboxamide]	246	> 25000
COc1cc(-c2nn3c(c2C(=O)N[C@H]2N=C(c4ccccc4)c4ccccc4NC2=O)O[C@H](C)CC3)ccn1 [Example 49, (5R)-2-(2-Methoxypyridin-4-yl)-5-methyl-N-[(3S)-2-oxo-5-phenyl-1,3-dihydro-1,4-benzodiazepin-3-yl]-6,7-dihydro-5H-pyrazolo[5,1-b][1,3]oxazine-3-carboxamide]	243	> 25000
CC(O)Cc1ccc(-c2nn3c(c2C(=O)N[C@H]2N=C(c4ccccc4)c4ccccc4NC2=O)O[C@H](C)CC3)cn1 (stereo partly drawn) [Example 50, (5R)-2-[6-(2-Hydroxypropyl)pyridin-3-yl]-5-methyl-N-[(3S)-2-oxo-5-phenyl-1,3-dihydro-1,4-benzodiazepin-3-yl]-6,7-dihydro-5H-pyrazolo[5,1-b][1,3]oxazine-3-carboxamide]	429	> 25000
